Our source for the IC50 values is paper PMC9923641 (Molecular Biotechnology, 2023).

One may read the IC50 as the point on the concentration scale where inhibition reaches its midpoint. The low end stands for greater potency, the high end for weaker potency.

For this assay, the target named is α-glucosidase. The assay is described as follows: enzyme inhibition assay with p-nitrophenyl-D-glycopyranoside substrate. It counts as biochemical.

The structures appear in SMILES notation.

Consider `COc1cccc(O)c1-c1cc(=O)c2c(O)c(OC)c(OC)c(OC)c2o1` [Skullcapflavone II], for which the IC50 was found to be 95 ± 11.5 nM. The figure for `COc1cc(O)c2c(=O)cc(-c3ccccc3O)oc2c1OC` [Skullcapflavone I] is 103 ± 8.43 nM.
